Test results as given in patent publication US9393276B2, “Edible composition” (Conopco,Inc., priority 2012, dated 2016).

Tests used:
[1] = tested on: Rat Insulinoma cell lines (RIN-5F); test: β-cell assay for protection against gluco-lipo toxicity (diabetes model); format: cell-based; details: RIN-5F cells treated with glucose and Palmitate-BSA complex, 18 hrs, neutral red; change with respect to Control 2 (glucose and Palmitate only); wt % of ingredients as per example
Method: This RPMI 1640 medium contains 2 g/L of glucose supplemented with 25 mM HEPES (4-(2-hydroxyethyl)-1-piperazineethanesulfonic acid, SRL Cat No: 084023C).
After that a complete medium was prepared by adding 100 μL of 100 mM Sodium pyruvate (Sigma, Cat No: P5280) and 10% (vv) in 100 mL of RPMI 1640.
100 μL/well of complete medium with the added Rat Insulinoma cell (RIN-5F, ATCC (USA)) was plated in a 96 well flat bottom plate (NEST Biotechnology Co. Ltd, Cat No 701001) so that the cell concentration is maintained at a level of 3.5×10^4 cells/well. This plate was then introduced in an incubator (Thermo Scientific, Model 3111; conditions: 5% CO2, at 37° C.) for 24 hours.
2.267 g of ultra Fatty Acid Free BSA (Roche applied sciences, Cat No: 03117405001) was added to 100 mL of 150 mM NaCl and stirred constantly at a maintained temperature of ˜37° C. […] After that this solution was filtered with a syringe filter of pore size of 0.22 μm (Millipore®, Cat no: SLGPO33RS). • 3. […]
After 4 hrs the neutral red medium was removed by aspiration using a micropipette and cells were washed with 100 μL/well of PBS solution (same as prepared above) to remove the excess stain. […] The colorimetric reading (absorbance) of the bound stain was read at a wavelength of 540 nm in a microwell plate reader (BIO-RAD LAB INDIA, Model No. 680). The efficacy of the test ingredients were evaluated with respect to the Control 2.

[2] = tested on: Rat Insulinoma cell lines (RIN-5F); details: 24 h
Method: Before starting the experiment it was needed to determine the cytotoxic dose for the Inula racemosa extract and theobromine. The cytotoxicity of both materials was determined as follows by Neutral red assay:
The Rat Insulinoma cell lines (RIN-5F, ATCC (USA)) was plated at a density of 3.5×10^4 cells/well (Volume 100 μL) in a 96 well plate (NEST Biotechnology Co. Ltd, Cat No 701001) and placed it in an incubator (Thermo Scientific, Model 3111; conditions: 5% CO2, at 37° C.) for 24 hours. After the incubation 10 μL of Inula racemosa water extract (at different concentration e.g. 10%, 1%, 0.1%, 0.01%, 0.001%, 0.0001% and 0.00001%) and 10 μL of theobromine solution (at different concentration e.g. 10%, 1%, 0.1%, 0.01%, 0.001%, 0.0001% and 0.00001%) were added to the culture and incubated for 24 hours in the same incubator. As a control in some wells there was no addition of either Inula racemosa or theobromine (only medium and cells). […]
The bound stain was extracted out from the cells by adding 150 μL of desorption solution and dissolved the dye completely. […] The absorbance of the stain extracted out from the cells was measured at 540 nm in a microwell plate reader (BIO-RAD LAB INDIA, Model No. 680).
The percentage of live cells was calculated using the below mentioned formula: […]

Compound	% change in cell viability [1]	non-cytotoxic concentration [2]
Cn1cnc2c1c(=O)[nH]c(=O)n2C [E, Theobromine]	5 ± 2%	
Cn1cnc2c1c(=O)[nH]c(=O)n2C [theobromine, 3,7-dimethylxanthine]		≤ 0.001%
